Target: Prothrombin (Homo sapiens) (UniProt P00734)
Assay: Inhibitory activity against human thrombin

| K ass | SMILES |
| --- | --- |
| 9.6e+06 l M-1 | COc1cc(Cn2c(-c3ccc(OCCN4CCCC4)cc3)nc3cc(O)ccc32)ccc1Cn1ccnc1 |
| 410000 l M-1 | O=C(c1ccc(OCCN2CCCC2)cc1)c1c(-c2ccc(OCCN3CCCC3)cc2)sc2ccccc12 |
| 1.97e+08 l M-1 | COc1cc(Cn2c(-c3ccc(OCCN4CCCC4)cc3)cc3ccccc32)ccc1CN1CCCC1 |
| 7.68e+06 l M-1 | COC(=O)CCCOc1ccc(-c2sc3ccccc3c2Cc2ccc(CN3CCCC3)c(OC)c2)cc1 |
| 3.91e+06 l M-1 | COc1cc(Cc2c(-c3ccc(OCCCC(=O)O)cc3)sc3ccccc23)ccc1CN1CCCC1 |
| 1.5e+07 l M-1 | COc1cc(Cn2c(-c3ccc(OCCN4CCCC4=O)cc3)nc3ccccc32)ccc1CN1CCCC1 |
| 1.65e+07 l M-1 | COc1cc(Cn2c(-c3ccc(OCCN4CCCC4)cc3)nc3cc(O)ccc32)ccc1NCc1ccccc1 |
| 8.37e+07 l M-1 | COc1cc(Cn2c(-c3ccc(OCCN4CCCC4)cc3)cc3cnccc32)ccc1C(=O)N1CCCC1 |
| 3.37e+07 l M-1 | COc1cc(Cn2c(-c3ccc(OCCCCO)cc3)cc3ccccc32)ccc1CN1CCCC1 |
| 332000 l M-1 | c1ccc2c(c1)nc(-c1ccc(OCCN3CCCC3)cc1)n2Cc1ccc(OCCN2CCCC2)cc1 |
| 1.46e+06 l M-1 | COc1cc(Cn2c(-c3ccc(OCCn4cccn4)cc3)nc3ccccc32)ccc1CN1CCCC1 |
| 1.93e+06 l M-1 | COc1cc(Cn2c(-c3ccc(OCCN4CCCC4)cc3)nc3cc(CO)ccc32)ccc1CN1CCCC1 |
| 8.15e+08 l M-1 | COc1cc(Cc2c(-c3ccc(OCCN4CCCC4)cc3)sc3cc(O)ccc23)ccc1CN1CCCC1 |
| 6.27e+06 l M-1 | c1ccc2c(c1)cc(-c1ccc(OCCN3CCCC3)cc1)n2Cc1ccc(OCCN2CCCC2)cc1 |
| 2.47e+07 l M-1 | COC(=O)CCCOc1ccc(-c2cc3ccccc3n2Cc2ccc(CN3CCCC3)c(OC)c2)cc1 |
| 7.39e+07 l M-1 | COc1cc(Cn2c(-c3ccc(OCCN4CCCC4)cc3)cc3cnccc32)ccc1CN1CCCC1 |
| 1.19e+07 l M-1 | COc1cc(Cn2c(-c3ccc(OCCN4CCCC4)cc3)nc3ccccc32)ccc1CN1CCCC1 |
| 1.26e+08 l M-1 | COc1cc(Cc2c(-c3ccc(OCCN4CCCC4)cc3)sc3ccccc23)ccc1CN1CCCC1 |
| 1.49e+07 l M-1 | COc1cc(Cc2c(-c3ccc(OCCCCO)cc3)sc3ccccc23)ccc1CN1CCCC1 |
| 4.49e+06 l M-1 | COc1cc(Cn2c(-c3ccc(OCCN4CCCC4)cc3)nc3cc(CN)ccc32)ccc1CN1CCCC1 |
| 9.72e+06 l M-1 | COc1cc(Cn2c(-c3ccc(OCCN4CCCC4)cc3)nc3cc(O)ccc32)ccc1CN1CCCC1 |
| 974000 l M-1 | c1ccc2c(Cc3ccc(OCCN4CCCC4)cc3)c(-c3ccc(OCCN4CCCC4)cc3)oc2c1 |
| 5.97e+07 l M-1 | COc1cc(Cn2c(-c3ccc(OCCN4CCCC4)cc3)cc3ccncc32)ccc1C(=O)N1CCCC1 |
| 42000 l M-1 | c1ccc2c(Cc3ccc(OCCN4CCCC4)cc3)c(-c3ccc(OCCN4CCCC4)cc3)[nH]c2c1 |
| 1.2e+07 l M-1 | COc1cc(Cn2c(-c3ccc(OCCN4CCCC4)cc3)nc3cc(O)ccc32)ccc1Cn1cccn1 |
| 6.41e+06 l M-1 | COc1cc(Cn2c(-c3ccc(OCCCC(=O)O)cc3)cc3ccccc32)ccc1CN1CCCC1 |
| 1.02e+07 l M-1 | COc1cc(Cn2c(-c3ccc(OCCN4CCCC4)cc3)nc3cc(O)ccc32)ccc1Cn1ccnn1 |

Reference: ChEMBL document CHEMBL1132782
